The target in one data set is Kv1.4 (Homo sapiens, UniProt P22459). The settings on record: cited from earlier work.
Another data set deals with F425G Shaker mutation (Drosophila melanogaster, UniProt P08510, F425G). As to conditions: cited from earlier work.
Another data set deals with Kv4.2 (Homo sapiens, UniProt Q9NZV8). As to conditions: cited from earlier work.
The target of another data set is Kv1.1 (Homo sapiens, UniProt Q09470). The settings on record: cited from earlier work.
For another data set, the target named is Nav1.5 (Homo sapiens, UniProt Q14524). The settings on record: cited from earlier work.
A further data set concerns the target Shaker potassium channel (Drosophila melanogaster, UniProt P08510). As to conditions: cited from earlier work.
The next data set concerns the target Nav1.2 (Homo sapiens, UniProt Q99250). As to conditions: cited from earlier work.
Data set [1] concerns cardiac ventricular myocytes. It counts as cell-based, rat.
A further data set has as its target Kv2.1 (Homo sapiens, UniProt Q14721). The settings on record: cited from earlier work.
A further data set deals with Kv3.4 (Homo sapiens, UniProt Q03721). As to conditions: cited from earlier work.
For data set [2], the system named is New Zealand White rabbits. As to conditions: rabbit, in vivo.
A further data set concerns the target Kv1.3 (Homo sapiens, UniProt P22001). The settings on record: cited from earlier work.
Data set [3] deals with ventricular myocyte, cortex and trachea primary cultures. It counts as cell-based, rat.
For data set [4] the following is noted: rat, in vivo, iv.
In another data set the target is eag (Homo sapiens, UniProt O95259). The settings on record: cited from earlier work.
Data set [5] concerns primary cultures of myocytes. It counts as cell-based, rat.
In a further data set the target is herg (Homo sapiens, UniProt Q12809). The settings on record: cited from earlier work.
Data set [6] concerns trout Shaker homolog (Sha1). As to conditions: cited from earlier work.

“Also recorded” adds a separate entry of the source. Like-named read-outs stand apart in the source and are kept apart here.

Sequence of Shaker potassium channel (P08510 whole entry, looked up): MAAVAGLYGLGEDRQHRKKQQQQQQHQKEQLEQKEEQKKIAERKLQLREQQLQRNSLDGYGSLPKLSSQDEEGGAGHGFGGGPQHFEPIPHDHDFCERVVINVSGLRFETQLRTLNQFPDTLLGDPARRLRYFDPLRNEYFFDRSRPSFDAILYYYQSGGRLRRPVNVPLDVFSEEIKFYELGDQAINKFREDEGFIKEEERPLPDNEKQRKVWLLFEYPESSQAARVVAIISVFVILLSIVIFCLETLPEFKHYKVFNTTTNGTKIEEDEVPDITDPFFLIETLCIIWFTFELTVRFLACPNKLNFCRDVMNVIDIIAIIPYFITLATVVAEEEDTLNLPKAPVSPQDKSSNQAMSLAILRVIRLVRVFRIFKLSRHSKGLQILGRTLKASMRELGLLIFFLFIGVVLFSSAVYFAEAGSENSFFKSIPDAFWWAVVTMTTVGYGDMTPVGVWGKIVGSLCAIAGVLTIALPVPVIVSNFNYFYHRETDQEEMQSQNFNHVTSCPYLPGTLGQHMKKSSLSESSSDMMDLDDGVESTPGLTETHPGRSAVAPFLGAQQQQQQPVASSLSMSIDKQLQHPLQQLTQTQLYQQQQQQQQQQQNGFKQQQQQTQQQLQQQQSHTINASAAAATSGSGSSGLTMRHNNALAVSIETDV
Sequence of Nav1.2 (Q99250 whole entry, looked up): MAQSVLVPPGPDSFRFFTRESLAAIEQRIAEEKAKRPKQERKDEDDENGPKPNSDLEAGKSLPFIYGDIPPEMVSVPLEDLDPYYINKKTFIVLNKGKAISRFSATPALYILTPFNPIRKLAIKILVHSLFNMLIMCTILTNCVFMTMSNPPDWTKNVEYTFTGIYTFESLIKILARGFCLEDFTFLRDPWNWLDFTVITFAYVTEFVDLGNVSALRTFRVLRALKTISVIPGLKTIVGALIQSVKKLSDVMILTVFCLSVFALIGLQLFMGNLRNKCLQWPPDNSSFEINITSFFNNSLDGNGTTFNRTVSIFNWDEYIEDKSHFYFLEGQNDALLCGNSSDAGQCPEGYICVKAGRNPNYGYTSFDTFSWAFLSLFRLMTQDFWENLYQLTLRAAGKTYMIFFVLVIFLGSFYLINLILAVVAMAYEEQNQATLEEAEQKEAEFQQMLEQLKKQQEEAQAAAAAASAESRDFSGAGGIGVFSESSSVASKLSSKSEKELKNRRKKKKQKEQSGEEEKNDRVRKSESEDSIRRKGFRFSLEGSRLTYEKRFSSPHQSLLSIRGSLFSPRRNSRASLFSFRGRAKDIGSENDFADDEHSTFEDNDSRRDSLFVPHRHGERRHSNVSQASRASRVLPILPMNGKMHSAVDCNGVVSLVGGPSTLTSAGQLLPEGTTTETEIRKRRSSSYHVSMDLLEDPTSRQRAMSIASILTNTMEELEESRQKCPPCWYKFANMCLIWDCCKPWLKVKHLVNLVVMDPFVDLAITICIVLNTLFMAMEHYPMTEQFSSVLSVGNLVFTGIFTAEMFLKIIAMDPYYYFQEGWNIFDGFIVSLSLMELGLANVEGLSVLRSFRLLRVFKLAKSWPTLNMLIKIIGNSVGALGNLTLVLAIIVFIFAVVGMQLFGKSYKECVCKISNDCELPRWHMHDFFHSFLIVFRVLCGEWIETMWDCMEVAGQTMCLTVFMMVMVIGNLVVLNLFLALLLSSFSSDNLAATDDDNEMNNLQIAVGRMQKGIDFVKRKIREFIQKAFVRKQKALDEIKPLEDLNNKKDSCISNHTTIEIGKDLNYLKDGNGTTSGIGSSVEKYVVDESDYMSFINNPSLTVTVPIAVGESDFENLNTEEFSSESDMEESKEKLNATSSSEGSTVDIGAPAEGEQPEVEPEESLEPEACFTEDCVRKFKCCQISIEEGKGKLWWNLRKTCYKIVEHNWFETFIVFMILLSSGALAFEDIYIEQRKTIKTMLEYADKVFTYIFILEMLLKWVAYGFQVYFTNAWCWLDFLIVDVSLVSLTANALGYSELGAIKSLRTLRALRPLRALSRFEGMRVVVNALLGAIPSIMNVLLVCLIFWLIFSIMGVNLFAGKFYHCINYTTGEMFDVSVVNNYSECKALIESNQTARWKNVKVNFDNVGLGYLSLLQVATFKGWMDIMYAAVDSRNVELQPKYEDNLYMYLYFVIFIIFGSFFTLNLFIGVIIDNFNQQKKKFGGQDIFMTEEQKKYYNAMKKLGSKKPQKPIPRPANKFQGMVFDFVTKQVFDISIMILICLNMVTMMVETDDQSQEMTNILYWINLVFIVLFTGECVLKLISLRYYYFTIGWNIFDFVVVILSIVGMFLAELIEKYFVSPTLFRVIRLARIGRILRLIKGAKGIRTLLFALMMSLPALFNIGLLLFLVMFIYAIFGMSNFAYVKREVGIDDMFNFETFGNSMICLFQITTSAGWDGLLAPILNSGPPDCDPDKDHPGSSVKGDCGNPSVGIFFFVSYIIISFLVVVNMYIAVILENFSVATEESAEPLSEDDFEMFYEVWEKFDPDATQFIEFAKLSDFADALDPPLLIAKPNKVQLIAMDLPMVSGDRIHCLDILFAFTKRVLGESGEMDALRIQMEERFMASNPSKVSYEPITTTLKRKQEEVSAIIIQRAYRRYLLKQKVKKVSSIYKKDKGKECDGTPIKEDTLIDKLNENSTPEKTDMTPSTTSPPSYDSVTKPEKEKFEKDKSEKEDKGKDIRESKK
Sequence of Kv1.1 (Q09470 whole entry, looked up): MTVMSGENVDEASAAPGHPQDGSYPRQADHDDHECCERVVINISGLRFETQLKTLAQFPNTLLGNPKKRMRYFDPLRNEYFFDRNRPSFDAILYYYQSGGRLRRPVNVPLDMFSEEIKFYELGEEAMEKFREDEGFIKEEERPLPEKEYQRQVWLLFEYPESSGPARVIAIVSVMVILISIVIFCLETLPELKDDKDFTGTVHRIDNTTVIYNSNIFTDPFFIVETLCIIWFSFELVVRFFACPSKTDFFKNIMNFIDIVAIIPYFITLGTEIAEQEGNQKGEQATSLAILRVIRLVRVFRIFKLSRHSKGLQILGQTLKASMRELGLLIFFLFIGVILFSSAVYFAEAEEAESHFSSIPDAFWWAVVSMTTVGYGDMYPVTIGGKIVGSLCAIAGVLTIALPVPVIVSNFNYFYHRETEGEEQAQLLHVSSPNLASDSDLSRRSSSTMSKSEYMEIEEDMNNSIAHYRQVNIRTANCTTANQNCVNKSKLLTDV
Sequence of herg (Q12809 whole entry, looked up): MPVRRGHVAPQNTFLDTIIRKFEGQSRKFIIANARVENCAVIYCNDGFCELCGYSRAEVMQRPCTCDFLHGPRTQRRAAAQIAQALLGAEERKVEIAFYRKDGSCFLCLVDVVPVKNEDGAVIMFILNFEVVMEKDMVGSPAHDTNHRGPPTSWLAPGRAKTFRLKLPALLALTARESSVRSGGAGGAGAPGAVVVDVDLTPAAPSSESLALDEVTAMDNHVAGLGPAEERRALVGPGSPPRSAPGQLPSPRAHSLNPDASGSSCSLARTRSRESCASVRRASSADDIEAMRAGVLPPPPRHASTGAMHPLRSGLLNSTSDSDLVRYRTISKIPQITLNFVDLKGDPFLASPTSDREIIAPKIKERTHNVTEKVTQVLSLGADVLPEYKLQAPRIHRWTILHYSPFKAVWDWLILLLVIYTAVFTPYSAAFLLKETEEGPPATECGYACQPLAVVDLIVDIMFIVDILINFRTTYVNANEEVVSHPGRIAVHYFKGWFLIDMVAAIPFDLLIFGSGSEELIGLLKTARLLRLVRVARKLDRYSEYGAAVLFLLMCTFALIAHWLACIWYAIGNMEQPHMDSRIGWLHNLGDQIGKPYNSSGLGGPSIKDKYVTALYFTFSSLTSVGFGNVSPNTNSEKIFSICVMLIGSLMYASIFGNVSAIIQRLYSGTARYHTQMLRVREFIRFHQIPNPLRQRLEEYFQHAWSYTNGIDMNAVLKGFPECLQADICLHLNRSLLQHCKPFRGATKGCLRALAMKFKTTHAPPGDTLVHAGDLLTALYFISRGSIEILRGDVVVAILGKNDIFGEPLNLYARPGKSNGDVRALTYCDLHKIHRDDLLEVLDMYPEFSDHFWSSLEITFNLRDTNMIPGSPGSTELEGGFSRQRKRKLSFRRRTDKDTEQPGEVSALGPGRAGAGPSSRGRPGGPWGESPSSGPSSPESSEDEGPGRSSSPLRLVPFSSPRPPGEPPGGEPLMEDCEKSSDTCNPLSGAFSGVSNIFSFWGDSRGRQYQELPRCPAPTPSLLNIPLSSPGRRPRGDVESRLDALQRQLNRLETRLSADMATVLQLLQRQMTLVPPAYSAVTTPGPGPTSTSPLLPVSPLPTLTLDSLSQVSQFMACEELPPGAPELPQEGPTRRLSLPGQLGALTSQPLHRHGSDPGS
Sequence of Kv4.2 (Q9NZV8 whole entry, looked up): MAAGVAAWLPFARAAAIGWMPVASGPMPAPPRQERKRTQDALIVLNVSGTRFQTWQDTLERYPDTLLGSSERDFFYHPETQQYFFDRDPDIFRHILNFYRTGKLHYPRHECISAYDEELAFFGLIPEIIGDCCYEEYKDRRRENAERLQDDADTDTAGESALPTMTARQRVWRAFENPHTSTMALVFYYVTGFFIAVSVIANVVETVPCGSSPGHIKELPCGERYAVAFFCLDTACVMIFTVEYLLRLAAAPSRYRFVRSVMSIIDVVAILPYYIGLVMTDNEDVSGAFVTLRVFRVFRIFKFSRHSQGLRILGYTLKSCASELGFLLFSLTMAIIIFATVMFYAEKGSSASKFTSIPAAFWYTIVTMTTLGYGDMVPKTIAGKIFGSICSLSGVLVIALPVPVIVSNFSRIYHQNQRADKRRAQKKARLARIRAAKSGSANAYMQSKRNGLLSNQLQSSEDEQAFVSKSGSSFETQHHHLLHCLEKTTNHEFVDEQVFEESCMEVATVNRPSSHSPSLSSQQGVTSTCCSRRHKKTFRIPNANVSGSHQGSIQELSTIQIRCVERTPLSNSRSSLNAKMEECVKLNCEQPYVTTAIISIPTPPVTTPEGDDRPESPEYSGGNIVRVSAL
Sequence of F425G Shaker mutation (P08510 whole entry F425G, looked up): as the sequence (P08510 whole entry, looked up) above, with F425G counted along it

Broadly, the IC50 is the point on the concentration scale where inhibition reaches its midpoint. Regarding “Leu-X2-Ser-Cys-Cys-Ser-Leu-Asn-Leu-X1-Leu-Cys-X2-Val-X2-Ala-Cys-X3-X1-Asn-X2-Cys-Cys-Thr [κM-RIIIK]”, the “activity on Kv1.4” value on Kv1.4 was “no detectable activity”. Besides, on F425G Shaker mutation, the “effect of F425G Shaker mutation on κM-RIIIK sensitivity” value is on record as “decreases κM-RIIIK sensitivity”. Further, the “activity on Kv4.2” value at Kv4.2 is listed as “no detectable activity”. Further, the “activity on Kv1.1” value at Kv1.1 is “no detectable activity”. The infarct size entry (in the data set on isolated rabbit hearts; in data set [2]) was “reduces the infarct size” throughout. Moreover, the “activity on Nav1.5” value at Nav1.5 was “no detectable activity”. Besides, the “state dependence of inhibition, open vs closed state affinity” value (at Shaker potassium channel; in data set [6]) was “three to four times lower affinity for the open state” in each case. In addition, the IC50 on Shaker potassium channel (read-out: IC50, antagonist of the Shaker potassium channel) was approximately 1.2 µM; in [6] (read-out: IC50 on Sha1, closed state), 0.02 µM; in data set [6] (read-out: IC50 on Sha1, open state) it was 0.06 µM. Besides, the “activity on Nav1.2” value at Nav1.2 is listed as “no detectable activity”. Besides, the “protection against hypoxia-induced depolarization” value in data set [1] is “prevents any hypoxia-induced changes in membrane potential; also recorded: strong protective effect; also recorded: confers protection against hypoxia-induced depolarization”. In addition, the “activity on Kv2.1” value at Kv2.1 is “no detectable activity”. Besides, on Kv3.4, the “activity on Kv3.4” value was “no detectable activity”. Moreover, the hemodynamic effect result in data set [2] (iv) is “without any hemodynamic effect”. For the same substance, at Kv1.3, the “activity on Kv1.3” value is reported as “no detectable activity”. For the same substance, the “protection against hypoxia-induced changes in intracellular calcium” value in data set [3] was “able to provide protection against hypoxia”. Also, the “effect on blood pressure” value in data set [4] is recorded as “no effect”. Also, the “effect on heart rate” value in data set [4] is on record as “no effect”. The activity on eag result at eag is on record as “no detectable activity”. Besides, in [5], the “induction of glibenclamide-sensitive currents” value was “induces glibenclamide-sensitive currents in primary cultures of myocytes in a highly potent manner”. For the same substance, the activity on herg entry at herg is recorded as “no detectable activity”.

Values taken from US20080089844A1 (priority 2002, published 2008).
